# Key:
# [1] = Clinical chemistry and hematology in rat 48 h after intravenous 2 mpk dose; type: in vivo; conditions: 48 h post dose
# Experimental: Sample formulations of nanoparticle compositions including different lipids were administered intravenously to rat at a dose of 2 mpk. The expression of various clinical markers was evaluated at 48 h post dose and compared to that induced by administration of MC3 formulations or phosphate buffered saline (PBS).
# luciferase (Luc) mRNA [2] = assay: Luciferase expression (whole body bioluminescence) after intravenous administration to mice; type: in vivo; conditions: for Novel lipid/MC3 expression ratio, i.v. / Total Flux 3 hours / Total Flux 6 hours / Total Flux 24 hours / Fold increase in Luc expression over MC3 upon intravenous administration: intravenous; for Novel lipid/MC3 expression ratio, i.v.: luciferase, 6 hr. time point, relative to MC3 formulation; for Total Flux 3 hours / Total Flux 6 hours / Total Flux 24 hours: mice (n=6), 0.5 mg/kg; for Fold increase in Luc expression over MC3 upon intravenous administration: higher doses than the intramuscular data
# Procedure, shortened: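 Luc mRNA nanoparticles were given IV at 0.5 mg/kg to groups of six mice, and whole-body bioluminescent flux was imaged 3, 6 and 24 h post-dose. Flux AUC for each lipid formulation was reported as a ratio to the MC3 reference formulation.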
# luciferase (Luc) mRNA [3] = assay: Luciferase expression after intramuscular administration to mice; type: in vivo; conditions: for Novel lipid/MC3 expression ratio, i.m. Luc: 6 hr. time point, relative to MC3 formulation
# Procedure, shortened: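 CD-1 mice received lipid nanoparticle formulations of modified luciferase mRNA intramuscularly at 0.01 mpk. Bioluminescence total flux was measured, including at 6 h, and AUC was expressed relative to MC3 formulations. Immunogenicity was assessed in parallel.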
# hEPO mRNA = assay: hEPO expression after intramuscular administration to mice; type: in vivo; conditions: for Novel lipid/MC3 ratio, i.m. hEPO: Table 3G, intramuscular, 6 hr. timepoint, relative to MC3
# Experimental: The numbers 1-11 in this figure correspond to MC3, Compounds 18, 25, 30, 108-112, 60, and 122 respectively.
# The expression of hEPO and cytokine induction in mice intravenously administered a nanoparticle composition at a dose of 0.5 mpk were measured at 3, 6, and 24 hours. […] The expression of hEPO in mice intramuscularly administered a nanoparticle composition from Table 1B at a dose of 0.01 mpk were measured at 3, 6, and 24 hours. […] (see
# [4] = Pharmacokinetic study of lipids in plasma, liver and spleen (compound 18, compound 25, MC3); conditions: for HL: table titled mouse; for AUC / Cmax / Tmax / half-life: male, Sprague-Dawley, rat, iv; for clearance from liver tissue: rat pharmacokinetic study, 24-48 hours
# Experimental: LNP administration to animals: mRNA-LNPs diluted in phosphate buffered saline (PBS) were injected intravenously (5 mL/kg) into female CD-1 female mice (18 to 22 g in body weight) and male Sprague-Dawley rats (225-250 g in body weight) via the tail vein using 29 g, 3/10 cc insulin syringes (mice) or 27 g, 1 mL syringes (rats) after gentle warming of the animals using a heat lamp for 3 minutes.
# Protein was precipitated and analyzed against calibration standards prepared in matching blank. Chromatographic separation and quantification was accomplished with a LC-MS/MS System. Samples were injected and separated via HPLC A triple-quadrupole MS/MS system operated in positive ion mode was used for signal detection.
# PK analysis of the individual plasma and tissue concentration data was performed using anon-validated program (Phoenix WinNonlin®, Version 7.0 (Pharsight Corp., Mountain View, Calif.)). Kinetic parameters were estimated using a noncompartmental model (Plasma (200-202), Uniform weighting, extravascular dosing with sparse sampling). The AUG was calculated using the linear trapezoidal rule. All derived parameters are reported to 3 significant figures with the exception of time to peak concentration (Tmax) and halflife (HL), which are reported to one decimal place. No further statistical analyses were performed on the plasma concentration data or derived pharacokinetic parameters.
# [5] = Chemical stability of lipids in ethanol at room temperature and 37° C. (lipid purity); type: physicochemical
# Experimental: Ester linkages were previously reported to trigger metabolism by esterases in vivo. (See Fukami, T. et al. Drug Metab. Pharmacokinet. 2012, 27, 466-477, the content of which is incorporated by reference herein in its entirety). […] (See Maier M. A., Mol. Ther. 2013, 21, 1570-1578, the content of which is incorporated herein in its entirety) First, the chemical stability of the lipids was evaluated by measuring ethanol stability at room temperature and 37° C. (Table 39). […] LNPs formed with compound 138 were larger, with a surface pKa>7. […] Removal of one ester function (compound 136) afforded LNPs with improved physiochemical characteristics and lower LNP surface pKa.
# [6] = intravenous administration (Table 3D)
# [7] = luciferase, intramuscular administration (Table 3H)
molecule,measurement,setting,value
"CCCCCCCCCN(CCO)CCCCCCCC(=O)OC(CCCCCCCC)CCCCCCCC [Compound 3, Heptadecan-9-yl 8-((2-hydroxyethyl)(nonyl)amino)octanoate]","Concentration, Alanine aminotransferase",[1],53.5
same,"Concentration, Aspartate aminotransferase",[1],87.5
same,"Concentration, Lymphocytes",[1],12051
same,"Concentration, Monocytes",[1],2103
same,"Concentration, Neutrophils",[1],3388.5
"CCCCCCCCC(C)OC(=O)CCCCCCCN(CCO)CCCCCCCC(=O)OC(CCCCCCCC)CCCCCCCC (stereo not shown) [Compound 48, decan-2-yl 8-((8-(heptadecan-9-yloxy)-8-oxooctyl)(2-hydroxyethyl)amino)octanoate]","Novel lipid/MC3 expression ratio, i.v.",luciferase (Luc) mRNA [2],10.0
same,"Novel lipid/MC3 expression ratio, i.m. Luc","luciferase (Luc) mRNA [3]; intramuscular, luciferase",0.31
"CCCCCCCCCOC(=O)CCCCCCCN(CCO)CCCCCCCOC(=O)C(CCCCCCCC)CCCCCCCC [Compound 30, 7-((2-Hydroxyethyl)(8-(nonyloxy)-8-oxooctyl)amino)heptyl 2-octyldecanoate]","Novel lipid/MC3 ratio, i.m. hEPO",hEPO mRNA,9.2
same,"Concentration, Alanine aminotransferase",[1],56
same,"Concentration, Aspartate aminotransferase",[1],95
same,"Concentration, Lymphocytes",[1],10408.5
same,"Concentration, Monocytes",[1],877
same,"Concentration, Neutrophils",[1],3195
"CCCCCC=CCC=CCCCCCCCCC(CCCCCCCCC=CCC=CCCCCC)OC(=O)CCCN(C)C (stereo not shown) [MC3, heptatriaconta-6,9,28,31-tetraen-19-yl 4-(dimethylamino)butanoate, reference compound]",Lipid/MC3 Luc expression,"luciferase (Luc) mRNA [2]; 0.5 mpk dose to mouse, 6 hours after administration",1
same,"Average total flux (6 h, ffluc)","luciferase (Luc) mRNA [2]; 6 h, ffluc",6.59 × 10^9
same,Fold increase in average total flux relative to MC3,"luciferase (Luc) mRNA [2]; 6 h, ffluc",1
same,AUC,luciferase (Luc) mRNA [2]; i.v. administration (Table 3C),8.24E+10 h*p/s
same,Fold increase AUC Lipid/MC3,luciferase (Luc) mRNA [2]; i.v. administration (Table 3C),1
same,Fold increase in total body Luc Flux relative to MC3 at 6 h,"luciferase (Luc) mRNA [2]; i.v. administration, 6 h",1.00
same,6 h Lipid/MC3 Avg. Luc Expression,"luciferase (Luc) mRNA [2]; i.v. administration, 6 h (Table 3C)",1
same,AUC,luciferase (Luc) mRNA [2]; [6],1.909E+011 p/s*h
same,Lipid/MC3 AUC,luciferase (Luc) mRNA [2]; [6],1
same,Total Flux 3 hours,luciferase (Luc) mRNA [2],1.58E+10
same,Total Flux 6 hours,luciferase (Luc) mRNA [2],2.12E+10
same,Total Flux 24 hours,luciferase (Luc) mRNA [2],7.19E+08
same,"Total flux 6 hours after intramuscular administration, 0.01 mpk Dose","luciferase (Luc) mRNA [3]; Luc mRNA, intramuscular, 0.01 mpk, 6 hours",3.23E+07 p/s
same,AUC,luciferase (Luc) mRNA [3]; [7],5.88E+08 p/s*h
same,Lipid/MC3 AUC,luciferase (Luc) mRNA [3]; [7],1
same,Fold increase in hEPO concentration relative to MC3,"hEPO mRNA; mice, intramuscular 0.01 mpk, 6 hr time point",1
same,"Concentration, Alanine aminotransferase",[1],339
same,"Concentration, Aspartate aminotransferase",[1],325
same,"Concentration, Lymphocytes",[1],19976
same,"Concentration, Monocytes",[1],1429
same,"Concentration, Neutrophils",[1],4962.5
same,HL,"[4]; Liver, * = 2 terminal datapoints estimation",52.5* hr
same,HL,[4]; Plasma,8.4 h
same,HL,"[4]; Spleen, * = 2 terminal datapoints estimation",33.3* hr
same,AUC,[4]; liver,1410 µg·h/mL
same,Cmax,[4]; liver,33000 ng/mL
same,Tmax,[4]; liver,24 h
same,half-life,[4]; liver,> 50 h
same,AUC,[4]; plasma,69.1 µg·h/mL
same,Cmax,[4]; plasma,28900 ng/mL
same,Tmax,[4]; plasma,0.5 h
same,AUC,[4]; spleen,787 µg·h/mL
same,Cmax,[4]; spleen,21200 ng/mL
same,Tmax,[4]; spleen,8 h
same,clearance from liver tissue,[4]; liver,still present at high concentrations at 48 hours
"CCCCCCCCCOC(=O)CCCCCCCN(CCO)CCCCCCCC(=O)OC(CCCCCCCC)CCCCCCCC [Compound 18, Heptadecan-9-yl 8-((2-hydroxyethyl)(8-(nonyloxy)-8-oxooctyl)amino)octanoate]",Fold increase in Luc expression over MC3 upon intravenous administration,luciferase (Luc) mRNA [2],highest fold increase
same,"Novel lipid/MC3 expression ratio, i.m. Luc","luciferase (Luc) mRNA [3]; intramuscular, luciferase",2.01
same,"Lipid Purity, t = 96 h, 25° C.",[5],94.71%
same,"Lipid Purity, t = 96 h, 37° C.",[5],95.01%
same,"Lipid Purity, t = 0",[5],94.37%
same,clearance from liver tissue,[4]; liver,efficiently cleared from liver tissue by 24 hours
Nonyl 8-((6-(heptadecan-9-yloxy)-6-oxohexyl)(2-hydroxyethyl)amino) octanoate [Compound 27],Fold increase in total body Luc Flux relative to MC3 at 6 h,"luciferase (Luc) mRNA [2]; i.v. administration, 6 h",0.31
same,"Novel lipid/MC3 expression ratio, i.v.",luciferase (Luc) mRNA [2],0.31
same,Total Flux 3 hours,luciferase (Luc) mRNA [2],1.64E+10
same,Total Flux 6 hours,luciferase (Luc) mRNA [2],1.03E+10
same,Total Flux 24 hours,luciferase (Luc) mRNA [2],1.94E+09
same,"Novel lipid/MC3 expression ratio, i.m. Luc","luciferase (Luc) mRNA [3]; intramuscular, luciferase",3.94
"CCCCCCCCCOC(=O)CCCN(CCO)CCCCCCCC(=O)OC(CCCCCCCC)CCCCCCCC [Compound 26, Heptadecan-9-yl 8-((2-hydroxyethyl)(4-(nonyloxy)-4-oxobutyl)amino) octanoate]",Fold increase in Luc expression over MC3 upon intravenous administration,luciferase (Luc) mRNA [2],highest fold increase
same,"Lipid Purity, t = 96 h, 25° C.",[5],97.38%
same,"Lipid Purity, t = 96 h, 37° C.",[5],95.72%
same,"Lipid Purity, t = 0",[5],98.64%
"CCCCCC/C=C\COC(=O)CCCCCCCN(CCO)CCCCCCCC(=O)OC(CCCCCCCC)CCCCCCCC [Compound 24, Heptadecan-9-yl (Z)-8-((2-hydroxyethyl) (8-(non-2-en-1-yloxy)-8-oxooctyl)amino)octanoate]","Novel lipid/MC3 ratio, i.m. Luc","luciferase (Luc) mRNA [3]; Table 3G, intramuscular, luciferase, 6 hr. timepoint, relative to MC3",1.10
same,"Novel lipid/MC3 expression ratio, i.m. Luc","luciferase (Luc) mRNA [3]; intramuscular, luciferase",1.10
same,"Concentration, Alanine aminotransferase",[1],51.5
same,"Concentration, Aspartate aminotransferase",[1],90
same,"Concentration, Lymphocytes",[1],14100
same,"Concentration, Monocytes",[1],1834
same,"Concentration, Neutrophils",[1],1790.5
"CCCCCCCCCCCOC(=O)CCCCCN(CCO)CCCCCCCC(=O)OC(CCCCCCCC)CCCCCCCC [Compound 25, Heptadecan-9-yl 8-((2-hydroxyethyl)(6-oxo-6-(undecyloxy)hexyl)amino)octanoate]","Novel lipid/MC3 ratio, i.m. hEPO",hEPO mRNA,7.1
same,"Concentration, Alanine aminotransferase",[1],52
same,"Concentration, Aspartate aminotransferase",[1],124.5
same,"Concentration, Lymphocytes",[1],15924
same,"Concentration, Monocytes",[1],2122
same,"Concentration, Neutrophils",[1],1998
same,"Lipid Purity, t = 96 h, 25° C.",[5],96.23%
same,"Lipid Purity, t = 96 h, 37° C.",[5],96.13%
same,"Lipid Purity, t = 0",[5],95.58%
same,half-life,[4]; liver,6.9 h
same,clearance from liver tissue,[4]; liver,efficiently cleared from liver tissue by 24 hours

# From US10857105B2, “Compounds and compositions for intracellular delivery of therapeutic agents” (ModernaTX, Inc., priority 2017, dated 2020)
